± gives the expanded uncertainty stated by the source.
Details: Crystal; visual observation

- Normal melting temperature: 197.50 ± 0.53 °C
Compound: O=C1C=CC(=O)N1c1cc(F)c(Br)c(F)c1 [1-(4-bromo-3,5-difluorophenyl)-1H-pyrrole-2,5-dione]

— the NIST ThermoML archive (doi:10.1021/je1010054)
